The supplement of paper PMC10627819

How the values were obtained:
S. pneumoniae D39V [1] = assay: fitness (endpoint OD595 vs no drug) (fraction); higher = more growth
Method in brief: (§1)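 Fitness was defined as the optical density at the transition into stationary phase relative to the robust mean of no-drug control wells. Values were capped at 1. Cultures were started at OD595 0.01 in 384-well plates (30 µl, or 55 µl for S. pneumoniae) in TSB, LB Lennox or CY at 37 °C. OD595 was recorded every 30 min over 14 h, with the first reading subtracted as background.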

B. subtilis 168 [2] = assay: as above
Method in brief: as §1

S. aureus Newman = assay: Bliss interaction score (quartile over a dose matrix) (fitness difference); higher = more antagonism (negative = synergy)
Method in brief: (§2)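 The Bliss score was calculated by subtracting the expected fitness, the product of single-drug values, from the observed fitness. OD595 at entry into stationary phase, over the plate's robust no-drug mean and capped at 1, served as the fitness readout. Single-drug values were inferred from combination data, and scores are summarised by quartiles across technical, biological and donor/recipient replicates.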

S. aureus DSM 20231 = assay: as above
Method in brief: as §2

S. pneumoniae D39V [3] = assay: as above
Method in brief: as §2

B. subtilis 168 [4] = assay: as above
Method in brief: as §2
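Wherever Bliss interaction score (quartile over a dose matrix) is given: first quartile when negative (synergy) and third quartile when positive (antagonism).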

CC(=O)NC[C@H]1CN(c2ccc(N3CCOCC3)c(F)c2)C(=O)O1 [Linezolid] + CCC(C)C1C(=O)NC(=C)C(=O)NC(C(=O)NC(CSCC(C(=O)N1)NC(=O)/C(=C/C)/NC(=O)C(C(C)CC)N)C(=O)NC2C(SCC(NC(=O)CNC(=O)C3CCCN3C2=O)C(=O)NC(CCCCN)C(=O)NC4C(SCC(NC(=O)CNC(=O)C(NC(=O)C(NC(=O)C(NC(=O)CNC4=O)C)CC(C)C)CCSC)C(=O)NC(CC(=O)N)C(=O)NC(CCSC)C(=O)NC(CCCCN)C(=O)NC5C(SCC6C(=O)NC(C(=O)NC(CSC(C(C(=O)N6)NC(=O)C(NC5=O)C)C)C(=O)NC(CO)C(=O)NC(C(C)CC)C(=O)NC(CC7=CN=CN7)C(=O)NC(C(C)C)C(=O)NC(=C)C(=O)NC(CCCCN)C(=O)O)CC8=CN=CN8)C)C)C)CC(C)C [Nisin]
main component drawn
Settings | fitness
B. subtilis 168 [2], first compound 0.125 µg/mL, partner 0.5 µg/mL | 0.503
B. subtilis 168 [2], first compound 0.125 µg/mL, partner 1 µg/mL | 0.421
B. subtilis 168 [2], first compound 0.125 µg/mL, partner 2 µg/mL | 0.111
B. subtilis 168 [2], first compound 0.25 µg/mL, partner 0.5 µg/mL | 0.167
B. subtilis 168 [2], first compound 0.25 µg/mL, partner 1 µg/mL | 0.0862
B. subtilis 168 [2], first compound 0.25 µg/mL, partner 2 µg/mL | 0.0407
S. pneumoniae D39V [1], first compound 0.105 µg/mL, partner 1.6 µg/mL | 0.0032
S. pneumoniae D39V [1], first compound 0.105 µg/mL, partner 3.2 µg/mL | 0.0264
S. pneumoniae D39V [1], first compound 0.105 µg/mL, partner 6.4 µg/mL | 0.015
S. pneumoniae D39V [1], first compound 0.2 µg/mL, partner 0.4275 µg/mL | 0.804
S. pneumoniae D39V [1], first compound 0.2 µg/mL, partner 0.855 µg/mL | 0.657
S. pneumoniae D39V [1], first compound 0.2 µg/mL, partner 1.71 µg/mL | 0.0574
S. pneumoniae D39V [1], first compound 0.21 µg/mL, partner 1.6 µg/mL | 0
S. pneumoniae D39V [1], first compound 0.21 µg/mL, partner 3.2 µg/mL | 0.0008
S. pneumoniae D39V [1], first compound 0.21 µg/mL, partner 6.4 µg/mL | 0
S. pneumoniae D39V [1], first compound 0.4 µg/mL, partner 0.4275 µg/mL | 0.63
S. pneumoniae D39V [1], first compound 0.4 µg/mL, partner 0.855 µg/mL | 0.314
S. pneumoniae D39V [1], first compound 0.4 µg/mL, partner 1.71 µg/mL | 0.0313
S. pneumoniae D39V [1], first compound 0.42 µg/mL, partner 1.6 µg/mL | 0.0074
S. pneumoniae D39V [1], first compound 0.42 µg/mL, partner 3.2 µg/mL | 0.0019
S. pneumoniae D39V [1], first compound 0.42 µg/mL, partner 6.4 µg/mL | 0.0156
S. pneumoniae D39V [1], first compound 0.8 µg/mL, partner 0.4275 µg/mL | 0.132
S. pneumoniae D39V [1], first compound 0.8 µg/mL, partner 0.855 µg/mL | 0.0545
S. pneumoniae D39V [1], first compound 0.8 µg/mL, partner 1.71 µg/mL | 0.0571

fitness, B. subtilis 168 [2], one replicate, main component drawn
Settings | first compound 0.0625 µg/mL | first compound 0.125 µg/mL | first compound 0.25 µg/mL | first compound 0.5 µg/mL
partner 0.5 µg/mL | 0.875 | – | – | 0.0342
partner 1 µg/mL | 0.743 | – | – | 0.0597
partner 1.25 µg/mL | – | 0.734 | 0.502 | 0.074
partner 1.6 µg/mL | – | 0.411 | 0.0282 | 0.027
partner 2 µg/mL | 0.547 | – | – | 0.0406
partner 2.5 µg/mL | – | 0.187 | 0.118 | 0.0568
partner 3.2 µg/mL | – | 0.0219 | 0.0214 | 0.042
partner 4 µg/mL | – | 0.038 | 0.0369 | 0.023
partner 5 µg/mL | – | 0.0523 | 0.0422 | 0.0652
partner 6.4 µg/mL | – | 0.0537 | 0.0573 | 0.0278
partner 8 µg/mL | – | 0.0224 | 0.0244 | 0.019
partner 16 µg/mL | – | 0.0095 | 0.0006 | 0.0145

main component drawn
Settings | Bliss interaction score
B. subtilis 168 [4] | -0.0535
S. aureus DSM 20231 | -0.0557
S. aureus Newman | -0.0621
S. pneumoniae D39V [3] | -0.0674

CC(=O)NC[C@H]1CN(c2ccc(N3CCOCC3)c(F)c2)C(=O)O1 [Linezolid] + CN(C)c1cc(NC(=O)CNC(C)(C)C)c(O)c2c1C[C@H]1C[C@H]3[C@H](N(C)C)C(O)=C(C(N)=O)C(=O)[C@@]3(O)C(O)=C1C2=O [Tigecycline]
Settings | fitness
B. subtilis 168 [2], first compound 0.125 µg/mL, partner 0.039 µg/mL | 0.542
B. subtilis 168 [2], first compound 0.125 µg/mL, partner 0.078 µg/mL | 0.537
B. subtilis 168 [2], first compound 0.125 µg/mL, partner 0.156 µg/mL | 0.543
B. subtilis 168 [2], first compound 0.25 µg/mL, partner 0.078 µg/mL | 0.0754
B. subtilis 168 [2], first compound 0.25 µg/mL, partner 0.156 µg/mL | 0.0704
B. subtilis 168 [2], first compound 0.5 µg/mL, partner 0.039 µg/mL | 0.0624
B. subtilis 168 [2], first compound 0.5 µg/mL, partner 0.078 µg/mL | 0.0638
B. subtilis 168 [2], first compound 0.5 µg/mL, partner 0.156 µg/mL | 0.0364
S. pneumoniae D39V [1], first compound 0.105 µg/mL, partner 0.65 µg/mL | 0.829
S. pneumoniae D39V [1], first compound 0.105 µg/mL, partner 1.3 µg/mL | 0.785
S. pneumoniae D39V [1], first compound 0.105 µg/mL, partner 2.6 µg/mL | 0.801
S. pneumoniae D39V [1], first compound 0.2 µg/mL, partner 0.65 µg/mL | 0.712
S. pneumoniae D39V [1], first compound 0.2 µg/mL, partner 1.3 µg/mL | 0.694
S. pneumoniae D39V [1], first compound 0.2 µg/mL, partner 2.6 µg/mL | 0.692
S. pneumoniae D39V [1], first compound 0.21 µg/mL, partner 0.65 µg/mL | 0.718
S. pneumoniae D39V [1], first compound 0.21 µg/mL, partner 1.3 µg/mL | 0.71
S. pneumoniae D39V [1], first compound 0.21 µg/mL, partner 2.6 µg/mL | 0.66
S. pneumoniae D39V [1], first compound 0.4 µg/mL, partner 0.65 µg/mL | 0.588
S. pneumoniae D39V [1], first compound 0.4 µg/mL, partner 1.3 µg/mL | 0.582
S. pneumoniae D39V [1], first compound 0.4 µg/mL, partner 2.6 µg/mL | 0.552
S. pneumoniae D39V [1], first compound 0.42 µg/mL, partner 0.65 µg/mL | 0.393
S. pneumoniae D39V [1], first compound 0.42 µg/mL, partner 1.3 µg/mL | 0.366
S. pneumoniae D39V [1], first compound 0.42 µg/mL, partner 2.6 µg/mL | 0.323
S. pneumoniae D39V [1], first compound 0.8 µg/mL, partner 0.65 µg/mL | 0.252
S. pneumoniae D39V [1], first compound 0.8 µg/mL, partner 1.3 µg/mL | 0.273
S. pneumoniae D39V [1], first compound 0.8 µg/mL, partner 2.6 µg/mL | 0.275

fitness, B. subtilis 168 [2], one replicate
Settings | partner 0.039 µg/mL | partner 0.078 µg/mL | partner 0.125 µg/mL | partner 0.156 µg/mL | partner 0.25 µg/mL | partner 0.5 µg/mL
first compound 0.0625 µg/mL | 0.872 | 0.848 | – | 0.896 | – | –
first compound 0.125 µg/mL | – | – | ≥ 1 | – | 0.871 | 0.909
first compound 0.25 µg/mL | – | – | 0.906 | – | 0.839 | 0.782
first compound 0.5 µg/mL | – | – | 0.214 | – | 0.0983 | 0.111

Settings | Bliss interaction score
B. subtilis 168 [4] | 0.11
S. aureus DSM 20231 | -0.0817
S. aureus Newman | -0.0561
S. pneumoniae D39V [3] | -0.158

CC(=O)NC[C@H]1CN(c2ccc(N3CCOCC3)c(F)c2)C(=O)O1 [Linezolid] + CN[C@@H]1[C@H](O[C@H]2[C@H](O[C@H]3[C@H](O)[C@@H](O)[C@H](N=C(N)N)[C@@H](O)[C@@H]3N=C(N)N)O[C@@H](C)[C@]2(O)C=O)O[C@@H](CO)[C@H](O)[C@H]1O [Streptomycin]
fitness
Settings | partner 2 µg/mL | partner 4 µg/mL | partner 8 µg/mL
B. subtilis 168 [2], first compound 0.125 µg/mL | 0.543 | 0.454 | 0.0968
B. subtilis 168 [2], first compound 0.25 µg/mL | 0.142 | 0.0931 | 0.0559
B. subtilis 168 [2], first compound 0.5 µg/mL | 0.0384 | 0.0468 | 0.0218
S. pneumoniae D39V [1], first compound 0.105 µg/mL | 0.763 | 0.752 | 0.803
S. pneumoniae D39V [1], first compound 0.2 µg/mL | – | 0.781 | 0.684
S. pneumoniae D39V [1], first compound 0.21 µg/mL | 0.655 | 0.683 | 0.719
S. pneumoniae D39V [1], first compound 0.4 µg/mL | – | 0.625 | 0.56
S. pneumoniae D39V [1], first compound 0.42 µg/mL | 0.376 | 0.337 | 0.307
S. pneumoniae D39V [1], first compound 0.8 µg/mL | – | 0.283 | 0.233

fitness, one replicate
Settings | partner 2 µg/mL | partner 4 µg/mL | partner 8 µg/mL | partner 16 µg/mL
B. subtilis 168 [2], first compound 0.0625 µg/mL | 0.938 | 0.556 | 0.0308 | –
S. pneumoniae D39V [1], first compound 0.2 µg/mL | 0.826 | – | – | 0.584
S. pneumoniae D39V [1], first compound 0.4 µg/mL | 0.659 | – | – | 0.41
S. pneumoniae D39V [1], first compound 0.8 µg/mL | 0.292 | – | – | 0.163

Settings | Bliss interaction score
B. subtilis 168 [4] | 0.0492
S. aureus DSM 20231 | -0.0536
S. aureus Newman | -0.0504
S. pneumoniae D39V [3] | -0.112
